Source: PubChem BioAssay AID1259407 (Chemical Carcinogenesis Research Information System (CCRIS), 2018)
Activity calls are given as the source filed them. No rule for the calls is given here.

System: CCRIS mutagenicity, Ames/micronucleus/aberration tests
Assay: CCRIS mutagenicity studies
[1] = Test System: AMES SALMONELLA TYPHIMURIUM, Strain/Indicator: TA102, Metabolic Activation: NONE, Method: STANDARD PLATE
[2] = Test System: AMES SALMONELLA TYPHIMURIUM, Strain/Indicator: TA104, Metabolic Activation: NONE, Method: STANDARD PLATE
[3] = Test System: AMES SALMONELLA TYPHIMURIUM, Strain/Indicator: TA98, Metabolic Activation: NONE, Method: STANDARD PLATE
[4] = Test System: AMES SALMONELLA TYPHIMURIUM, Strain/Indicator: TA100, Metabolic Activation: NONE, Method: STANDARD PLATE

CC(C)(C)OO
mutagenic call (End Point: In vitro micronucleus, Test System: Chinese hamster V79 cells, Metabolic Activation: None): active; positive (hibiscus tiliaceus l methanolic extract at doses above 0.010 mg/ml had | mutagenic call (Test System: AMES SALMONELLA TYPHIMURIUM, Strain/Indicator: TA98, Metabolic Activation: HAMSTER, LIVER, S-9, AROCLOR 1254, Method: PREINCUBATION): inactive; negative | mutagenic call (Test System: AMES SALMONELLA TYPHIMURIUM, Strain/Indicator: TA98, Metabolic Activation: NONE, Method: PREINCUBATION): inactive; negative | mutagenic call (Test System: AMES SALMONELLA TYPHIMURIUM, Strain/Indicator: TA98, Metabolic Activation: RAT, LIVER, S-9, AROCLOR 1254, Method: PREINCUBATION): inactive; negative | mutagenic call (Test System: AMES SALMONELLA TYPHIMURIUM, Strain/Indicator: TA100, Metabolic Activation: HAMSTER, LIVER, S-9, AROCLOR 1254, Method: PREINCUBATION): inactive; negative | mutagenic call (Test System: AMES SALMONELLA TYPHIMURIUM, Strain/Indicator: TA100, Metabolic Activation: NONE, Method: PREINCUBATION): inactive; negative | mutagenic call (Test System: AMES SALMONELLA TYPHIMURIUM, Strain/Indicator: TA100, Metabolic Activation: RAT, LIVER, S-9, AROCLOR 1254, Method: PREINCUBATION): inactive; negative | mutagenic call [1]: active; positive | mutagenic call (Test System: AMES SALMONELLA TYPHIMURIUM, Strain/Indicator: TA1535, Metabolic Activation: HAMSTER, LIVER, S-9, AROCLOR 1254, Method: PREINCUBATION): inactive; negative | mutagenic call (Test System: AMES SALMONELLA TYPHIMURIUM, Strain/Indicator: TA1535, Metabolic Activation: NONE, Method: PREINCUBATION): inactive; negative | mutagenic call (Test System: AMES SALMONELLA TYPHIMURIUM, Strain/Indicator: TA1535, Metabolic Activation: RAT, LIVER, S-9, AROCLOR 1254, Method: PREINCUBATION): inactive; negative | mutagenic call (Test System: AMES SALMONELLA TYPHIMURIUM, Strain/Indicator: TA1537, Metabolic Activation: HAMSTER, LIVER, S-9, AROCLOR 1254, Method: PREINCUBATION): active; positive | mutagenic call (Test System: AMES SALMONELLA TYPHIMURIUM, Strain/Indicator: TA1537, Metabolic Activation: NONE, Method: PREINCUBATION): active; positive | mutagenic call (Test System: AMES SALMONELLA TYPHIMURIUM, Strain/Indicator: TA1537, Metabolic Activation: RAT, LIVER, S-9, AROCLOR 1254, Method: PREINCUBATION): active; positive | mutagenic call (Test System: AMES SALMONELLA TYPHIMURIUM, Strain/Indicator: TA2638, Metabolic Activation: NONE, Method: STANDARD PLATE): active; positive | mutagenic call (Test System: AMES SALMONELLA TYPHIMURIUM, Strain/Indicator: TA2638A, Metabolic Activation: NONE, Method: STANDARD PLATE): active; positive | mutagenic call (Test System: E. COLI, Strain/Indicator: IC202, Metabolic Activation: NONE, Method: STANDARD PLATE): active; positive | mutagenic call (Test System: E. COLI, Strain/Indicator: IC203, Metabolic Activation: NONE, Method: STANDARD PLATE): active; positive | mutagenic call (Test System: E. COLI, Strain/Indicator: IC5059, Metabolic Activation: NONE, Method: STANDARD PLATE): active; positive | mutagenic call (Test System: E. COLI, Strain/Indicator: IC5064, Metabolic Activation: NONE, Method: STANDARD PLATE): active; positive | mutagenic call (Test System: E. COLI, Strain/Indicator: IC5184, Metabolic Activation: NONE, Method: STANDARD PLATE): active; positive | mutagenic call (Test System: E. COLI, Strain/Indicator: IC5185, Metabolic Activation: NONE, Method: STANDARD PLATE): active; positive | mutagenic call (Test System: E. COLI, Strain/Indicator: WP2 (PKM101), Metabolic Activation: NONE, Method: STANDARD PLATE): active; positive | mutagenic call (Test System: E. COLI, Strain/Indicator: WP2 UVRA (PKM101), Metabolic Activation: NONE, Method: STANDARD PLATE): active; positive | mutagenic call (Test System: E. coli, Strain/Indicator: WP2 IC185 trpE65, Metabolic Activation: None, Method: Plate incorporation (Test material solvent: 1 x M9 buffer)): active; positive. linalool, myrcene and eycalyptol did not inhibit mutagenesis. | mutagenic call (Test System: E. coli, Strain/Indicator: WP2 IC202 trpE65 oxyR/pKM101, Metabolic Activation: None, Method: Plate incorporation (Test material solvent: 1 x M9 buffer)): active; positive. linalool, myrcene and eycalyptol inhibited mutagenesis.

O=C1NC(=O)C2CC=CCC12 (configuration not stated)
mutagenic call [1]: inactive; negative | mutagenic call (Test System: AMES SALMONELLA TYPHIMURIUM, Strain/Indicator: TA102, Metabolic Activation: RAT, LIVER, S-9, PHENOBARBITAL, Method: STANDARD PLATE): inactive; negative | mutagenic call [2]: inactive; negative | mutagenic call (Test System: AMES SALMONELLA TYPHIMURIUM, Strain/Indicator: TA104, Metabolic Activation: RAT, LIVER, S-9, PHENOBARBITAL, Method: STANDARD PLATE): inactive; negative

CCC(=O)Nc1ccc(Cl)c(Cl)c1
mutagenic call (Test System: AMES SALMONELLA TYPHIMURIUM, Strain/Indicator: TA97, Metabolic Activation: NONE, Method: STANDARD PLATE): inactive; negative | mutagenic call (Test System: AMES SALMONELLA TYPHIMURIUM, Strain/Indicator: TA97, Metabolic Activation: RAT, LIVER, S-9, AROCLOR 1254, Method: STANDARD PLATE): inactive; negative | mutagenic call [3]: inactive; negative | mutagenic call (Test System: AMES SALMONELLA TYPHIMURIUM, Strain/Indicator: TA98, Metabolic Activation: RAT, LIVER, S-9, AROCLOR 1254, Method: STANDARD PLATE): inactive; negative | mutagenic call [4]: inactive; negative | mutagenic call (Test System: AMES SALMONELLA TYPHIMURIUM, Strain/Indicator: TA100, Metabolic Activation: RAT, LIVER, S-9, AROCLOR 1254, Method: STANDARD PLATE): inactive; negative | mutagenic call [2]: inactive; negative | mutagenic call (Test System: AMES SALMONELLA TYPHIMURIUM, Strain/Indicator: TA104, Metabolic Activation: RAT, LIVER, S-9, AROCLOR 1254, Method: STANDARD PLATE): inactive; negative | mutagenic call (Test System: CHINESE HAMSTER OVARY, Strain/Indicator: CHO-K1-BH4 (HGPRT), Metabolic Activation: NONE): inactive; negative | mutagenic call (Test System: CHINESE HAMSTER OVARY, Strain/Indicator: CHO-K1-BH4 (HGPRT), Metabolic Activation: RAT, LIVER, S-9, AROCLOR 1254): inactive; negative

[N-]=[N+]=NC[C@@H]1O[C@H](O)[C@H](O)[C@@H](O)[C@@H]1O
mutagenic call [3]: inactive; negative | mutagenic call [4]: active; positive
